Tests used:
Cytochrome P450 2C9 = Cytochrome P450 2C9 (Homo sapiens, UniProt P11712); experiment: Inhibition of CYP2C9 (unknown origin); format: ADME
[1] = molecular target: T1, Solute carrier family 22 member 12 (Homo sapiens, UniProt Q96S37); experiment: Inhibition of URAT1 in human RPTEC assessed as inhibition of [14C]uric acid uptake at 10 uM preincubated for 15 mins followed by [14C]uric acid addition and incubated under shaking condition for 2 hrs by scintillation counter method; format: tissue-based
T1 sequence (Q96S37 whole entry): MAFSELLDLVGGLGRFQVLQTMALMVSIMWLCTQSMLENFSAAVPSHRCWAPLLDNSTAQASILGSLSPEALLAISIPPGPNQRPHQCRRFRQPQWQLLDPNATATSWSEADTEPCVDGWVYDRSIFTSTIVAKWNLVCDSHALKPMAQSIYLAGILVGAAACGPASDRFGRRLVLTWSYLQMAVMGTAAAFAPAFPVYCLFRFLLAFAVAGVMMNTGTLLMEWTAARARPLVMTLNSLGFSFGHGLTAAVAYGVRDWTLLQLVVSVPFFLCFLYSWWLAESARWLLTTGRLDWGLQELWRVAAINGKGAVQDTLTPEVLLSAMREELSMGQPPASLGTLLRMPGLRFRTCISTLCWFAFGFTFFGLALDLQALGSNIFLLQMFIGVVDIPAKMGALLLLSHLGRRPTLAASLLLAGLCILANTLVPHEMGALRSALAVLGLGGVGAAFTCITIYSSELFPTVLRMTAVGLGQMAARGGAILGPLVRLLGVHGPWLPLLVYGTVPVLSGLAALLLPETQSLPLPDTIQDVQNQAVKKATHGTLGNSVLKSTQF

[2] = Cmax in rat at 3 mg/kg, po by HPLC analysis; format: ADME, organism-based; set-up: route oral, dose 3 mg/kg; conditions: in vivo
[3] = Drug excretion rate in rat urine at 3 mg/kg, po measured up to 4 hrs by HPLC analysis; format: ADME, organism-based; conditions: read-out: Drug excretion
[4] = molecular target: T1, Solute carrier family 22 member 12; experiment: Inhibition of human URAT1 expressed in Xenopus laevis oocytes mediated [14C]uric acid uptake at 0.1 uM measured after 60 mins by liquid scintillation counter method relative to control; format: cell-based; conditions: 1 h
[5] = molecular target: T1, Solute carrier family 22 member 12; experiment: Inhibition of URAT1 in human RPTEC assessed as inhibition of [14C]uric acid uptake preincubated for 15 mins followed by [14C]uric acid addition and incubated under shaking condition for 2 hrs by scintillation counter method; format: tissue-based
[6] = tested on: mitochondrial respiration; experiment: Hepatotoxicity in rat liver mitochondria assessed as inhibition of mitochondrial respiration by measuring mitochondrial respiratory control ratio of oxygen consumption in presence of substrate and ADP to rate after complete conversion of ADP to ATP by Clark-type oxygen electrode method; format: toxicity
[7] = tested on: mitochondrial respiration; experiment: Hepatotoxicity in rat liver mitochondria assessed as inhibition of mitochondrial respiration by measuring mitochondrial respiratory control ratio of oxygen consumption in presence of substrate and ADP to rate after complete conversion of ADP to ATP at 100 uM by Clark-type oxygen electrode method; format: toxicity
[8] = Acid dissociation constant, pKa of the compound; format: physicochemical
[9] = Uricosuric effect in Cebus monkey assessed as fractional plasma urate excretion at 30 mg/kg, po measured up to 4 hrs; format: functional; conditions: time hrs <=4
[10] = AUC (0 to 24 hrs) in Cebus monkey at 30 mg/kg, po; format: ADME, organism-based; set-up: route oral, dose 30 mg/kg, time <=24; conditions: in vivo
[11] = Cmax in rat at 0.3 mg/kg, po; format: ADME, organism-based; set-up: route oral, dose 0.3 mg/kg; conditions: in vivo
[12] = Drug excretion in human urine assessed as excretion rate of glucuronide metabolite of phenols measured for 72 hrs by mass balance test; format: ADME, tissue-based
[13] = AUC (0 to 24 hrs) in Cebus monkey at 5 mg/kg, po; format: ADME, organism-based; set-up: route oral, dose 5 mg/kg, time <=24; conditions: in vivo
[14] = Uricosuric effect in Cebus monkey assessed as fractional plasma urate excretion at 5 mg/kg, po measured up to 4 hrs; format: functional; conditions: time hrs <=4
[15] = Cmax in rat at 0.3 mg/kg, iv; format: ADME, organism-based; set-up: route intravenous, dose 0.3 mg/kg; conditions: in vivo
[16] = Drug excretion in human urine assessed as excretion rate of sulfate metabolite of phenols measured for 72 hrs by mass balance test; format: ADME
[17] = molecular target: T1, Solute carrier family 22 member 12; experiment: Inhibition of human URAT1 expressed in Xenopus laevis oocytes assessed as inhibition of [14C]uric acid uptake measured after 60 mins by liquid scintillation counter method
[18] = Oral bioavailability in rat at 0.3 mg/kg; format: ADME, organism-based; conditions: in vivo
[19] = AUC (0 to infinity) in rat at 0.3 mg/kg, iv; format: ADME, organism-based; set-up: time infinity, route intravenous, dose 0.3 mg/kg; conditions: in vivo
[20] = AUC (0 to infinity) in rat at 0.3 mg/kg, po; format: ADME, organism-based; set-up: time infinity, route oral, dose 0.3 mg/kg; conditions: in vivo

Chain of Cytochrome P450 2C9 (P11712 whole entry): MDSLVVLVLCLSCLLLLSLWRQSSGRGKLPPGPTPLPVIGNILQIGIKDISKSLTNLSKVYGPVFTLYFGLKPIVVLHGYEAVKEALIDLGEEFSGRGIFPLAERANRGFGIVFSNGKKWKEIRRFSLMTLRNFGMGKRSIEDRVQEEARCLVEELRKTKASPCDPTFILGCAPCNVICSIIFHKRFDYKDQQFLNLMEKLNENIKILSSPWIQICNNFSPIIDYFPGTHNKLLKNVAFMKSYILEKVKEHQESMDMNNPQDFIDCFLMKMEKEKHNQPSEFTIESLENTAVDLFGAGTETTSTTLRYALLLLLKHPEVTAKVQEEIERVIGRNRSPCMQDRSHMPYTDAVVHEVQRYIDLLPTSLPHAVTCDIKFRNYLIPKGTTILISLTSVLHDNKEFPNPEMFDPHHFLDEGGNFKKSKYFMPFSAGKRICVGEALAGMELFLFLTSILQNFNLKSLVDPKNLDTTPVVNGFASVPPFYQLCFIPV

Row | Structure (SMILES) | inhibition at 10 µM [1] [%] | Cmax [2] [ng/mL] | dose excreted at 4 h [3] [%] | IC50 [5] [µM] | IC50 [6] [µM] | inhibition at 100 µM [7] [%] | other results
1 | N#Cc1cc(C(=O)N2CS(=O)(=O)c3ccccc32)cc(C2CC2)c1O | 42 | 3810 | 0.6 | 19.2 | 59 |  | IC50 (Cytochrome P450 2C9): 57 µM; inhibition at 0.1 µM [4]: 30%
2 | N#Cc1cc(C(=O)N2CSc3ccccc32)cc(C(F)(F)F)c1O | 49 | 3150 | 0.1 | 13.1 | 55 |  | inhibition at 0.1 µM [4]: 71%
3 | N#Cc1cc(C(=O)N2CCc3ccccc32)cc(Cl)c1O | 38.2 |  |  | 14.7 | 31 |  | 
4 | O=C(c1cc(Cl)c(O)c(C(F)(F)F)c1)N1CS(=O)(=O)c2ccccc21 |  | 6410 | 0.1 | 2.6 | 18 |  | 
5 | C#Cc1cc(C(=O)N2CS(=O)(=O)c3ccccc32)cc(C#N)c1O |  | 1580 | 12.4 | 3.2 |  | 13 | 
6 | CC(C)(C)c1cc(C(=O)N2CCc3ccccc32)cc(C#N)c1O | 32.4 |  |  | 31.6 | 6.6 |  | 
7 | N#Cc1cc(C(=O)N2CS(=O)(=O)c3ccccc32)cc(C(F)(F)F)c1O |  |  |  | > 100 |  | 12 | 
8 | CSc1cc(C(=O)N2CS(=O)(=O)c3ccccc32)cc(C#N)c1O | 57 | 1080 | 9.4 | 7.1 |  | 21 | inhibition at 0.1 µM [4]: 44%
9 | N#Cc1cc(C(=O)N2CCc3ccccc32)cc(C#N)c1O | 26.3 |  |  | 83.9 |  | 47 | 
10 | CSc1cc(C(=O)N2CS(=O)(=O)c3ccccc32)cc(Cl)c1O |  | 4640 | 0.2 | 5.7 | 59 |  | 
11 | COc1cc(C(=O)N2CS(=O)(=O)c3ccccc32)cc(C(F)(F)F)c1O |  | 3990 | 0 | 17.8 |  | 47 | 
12 | N#Cc1cc(C(=O)N2CCc3ccccc32)ccc1O | 67.5 | 890 | 5.9 | 2.5 |  | 43 | 
13 | O=C(c1cc(F)c(O)c(Cl)c1)N1CS(=O)(=O)c2ccccc21 |  | 7700 | 4.3 | 33.9 | 63 |  | 
14 | Cc1c(C)n(C(=O)c2ccc(O)c(C#N)c2)c2ccccc12 | 52.1 |  |  | 10.8 | 3.6 |  | 
15 | CC(C)c1cc(C(=O)N2CS(=O)(=O)c3ccccc32)cc(C#N)c1O |  | 4460 | 0.1 | 83.3 | 12 |  | 
16 | COc1cc(C(=O)N2CCc3ccccc32)cc(C#N)c1O | 21.7 |  |  | > 100 |  | -10 | 
17 | CSc1cc(C(=O)N2CCc3ccccc32)cc(C#N)c1O | 24.2 |  |  | > 100 | 40 |  | 
18 | N#Cc1cc(C(=O)N2CS(=O)(=O)c3ccccc32)cc(Cl)c1O | 25 | 1350 | 23 | > 100 |  | 20 | inhibition at 0.1 µM [4]: 29%
19 | CCc1cc(C(=O)N2CS(=O)(=O)c3ccccc32)cc(C#N)c1O | 32 | 4240 | 1.7 | > 100 | 37 |  | inhibition at 0.1 µM [4]: 36%
20 | COc1cc(C(=O)N2CS(=O)(=O)c3ccccc32)cc(Cl)c1O |  | 1060 | 0.1 | 4.3 |  | 49 | 
21 | N#Cc1cc(C(=O)N2CCc3ccccc32)cc(C2CC2)c1O | 67.8 | 1360 | 0.35 | 8.8 | 24 |  | 
22 | N#Cc1cc(C(=O)N2CCc3ccccc32)cc(I)c1O | 65.1 | 5950 | 0.02 | 5.3 | 53 |  | 
23 | N#Cc1cc(C(=O)N2CCc3ccccc32)cc(C(F)(F)F)c1O | 30 |  |  | > 100 |  | 40 | 
24 | CCc1oc2ccccc2c1C(=O)c1cc(Br)c(O)c(Br)c1 [BENZBROMARONE] | 51 | 4420 | 0 |  | 3.1 |  | pKa [8]: 5.17; Activity [9]: 11.5%; AUC(0-t) [10]: 95200 ng·h/mL; inhibition at 0.1 µM [4]: 37%
25 | O=C(c1cc(Cl)c(O)c(Cl)c1)N1CS(=O)(=O)c2ccccc21 [DOTINURAD] | 81 | 9140 | 1.1 | 6.8 | 27 |  | Cmax [11]: 1090 ng/mL; Drug excretion [12]: 44.3%; AUC(0-t) [13]: 109000 ng·h/mL; Activity [14]: 16.5%; Cmax [15]: 2400 ng/mL; Drug excretion [16]: 20%; IC50 [17]: 0.0372 µM; bioavailability [18]: 86.8%; AUC(0-inf) [19]: 6620 ng·h/mL; inhibition at 0.1 µM [4]: 78%; AUC(0-inf) [20]: 5740 ng·h/mL
26 | O=c1[nH]c(=O)c2[nH]c(=O)[nH]c2[nH]1 [URIC ACID] |  |  |  |  |  |  | pKa [8]: 5.75

Reference: ChEMBL document CHEMBL4725450 (ACS Med Chem Lett, 2020)
